In test [1] the test system is Streptococcus pneumoniae. The experiment in a line: Antibacterial activity against erythromycin-susceptible Streptococcus pneumoniae ATCC 49619.
For test [2], the system named is Streptococcus pneumoniae. The experiment in a line: Antibacterial activity against erythromycin-resistant Streptococcus pneumoniae B1 encoded by erm gene.
Test [3] concerns Streptococcus pneumoniae. The experiment in a line: Antibacterial activity against erythromycin-resistant Streptococcus pneumoniae A22072 encoded by mef gene.
Test [4] deals with Streptococcus pneumoniae. The experiment in a line: Antibacterial activity against erythromycin-resistant Streptococcus pneumoniae AB11 encoded by erm and mef gene.

In brackets after ≈: the same amount, converted by molar mass. Where only a bound is given, the exact number is not on record here.

As for `CC[C@H]1OC(=O)[C@H](C)[C@@H](O[C@H]2C[C@@](C)(OC)[C@@H](OC(=O)NCc3ccccc3)[C@H](C)O2)[C@H](C)[C@@H](O[C@@H]2O[C@H](C)C[C@H](N(C)C)[C@H]2O)[C@@](C)(O)C[C@@H](C)CN(C)[C@H](C)[C@@H](O)[C@]1(C)O`, the MIC is < 0.03 µg/mL in test [1], 16 µg/mL (≈ 18.1 µM) in test [2], 0.06 µg/mL (≈ 0.068 µM) in test [3] and 64 µg/mL (≈ 72.6 µM) in test [4].

In general, MIC refers to the lowest concentration found to suppress growth. Read a high MIC as a need for much substance.

For the origin of these results see ChEMBL document CHEMBL1154057, “Synthesis and antibacterial activity of novel 15-membered macrolide derivatives: 4''-carbamate, 11,12-cyclic carbonate-4''-carbamate and 11,4''-di-O-arylcarbamoyl analogs of azithromycin” (2009).
